# Experimental data as given in patent US5270334A, “4-methoxy-5-methyl-pyran-3-ol natural products and derivatives thereof” (E. R. Squibb & Sons, Inc., priority 1992, dated 1993).
# Key:
# Aspergillus fumigatus [1] = experiment: Activity of lanomycin against filamentous fungi, agar dilution (Table 6); type: cell-based
# Description: (§1) MICs were determined by the agar dilution method using a medium composed of tryptone (5 g), malt extract (3 g), glucose (10 g) and yeast extract (3 g) in 1 L distiled water; 10^4 cfu of the test organism was applied to the agar.
# (§2) MICs were determined as in Table 5 except that the inoculum was 10^3 cfu.
# [2] = test system: Trichophyton mentagrophytes; experiment: as above; type: cell-based; conditions: SC2637; Trichophyton mentagrophytes SC 2637; 10^3 cfu
# Description: as §1, §2
# Epidermophyton floccosum = experiment: as above; type: cell-based; conditions: SC9185; Epidermophyton floccosum SC 9185; 10^3 cfu
# Description: as §1, §2
# Trichophyton rubrum = experiment: as above; type: cell-based; conditions: SC9199; Trichophyton rubrum SC 9199; 10^3 cfu
# Description: as §1, §2
# Microsporum canis = experiment: as above; type: cell-based; conditions: SC9237; Microsporum canis SC 9237; 10^3 cfu
# Description: as §1, §2
# [3] = acute toxicity, intraperitoneal administration to mice; conditions: mouse, in vivo, ip, random bred Swiss Webster Female mice
# Aspergillus fumigatus [4] = experiment: Antibacterial and antifungal activity of lanomycin, agar dilution assay (Table 4); type: cell-based; conditions: SC2100, Aspergillus fumigatus SC 2100
# Description: (§3) *Minimal inhibitory concentrations were determined by agar dilution assay
# Enterococcus faecalis = experiment: as above; type: cell-based; conditions: SC9011; Enterococcus faecalis SC 9011
# Description: as §3
# [5] = test system: Trichophyton mentagrophytes; experiment: as above; type: cell-based; conditions: SC2637, Trichophyton mentagrophytes SC 2637
# Description: as §3
# Micrococcus luteus = experiment: as above; type: cell-based; conditions: SC2495; Micrococcus luteus SC 2495
# Description: as §3
# [6] = biological target: T1, lanosterol demethylase of Candida albicans (Candida albicans, UniProt P10613); experiment: inhibition of lanosterol demethylase, radiolabeled metabolic assay (14C-acetate, lanosterol accumulation); type: cell-based; conditions: Candida albicans SC5314, 14C-acetate, 30°
# T1 construct: 14C-acetate sterol labelling, TLC
# Description: The inhibition of lanosterol demethylase was determined by two methods: the spectrophotometric carbon monoxide binding assay of Omura and Sato (J. Biol. Chem. 239:2370-2378, 1964) and by a radiolabeled metabolic assay.
# The ability of scopularin and its alcohol to inhibit the lanosterol demethylase of Candida albicans can also be visualized by a metabolic assay. Candida albicans, SC5314, was grown overnight at 30° with shaking in the same medium as that used above. Cells were harvested by centrifugation and resuspended in water to give an optical density of 0.3 at 660 nm. 750 μl of this cell suspension, 300 μl of a medium containing 0.35 g Difco yeast nitrogen base without amino acids, 1 g glucose and distilled water to 10 ml, 100 μl of test material and distilled water were combined to give a final volume of 1.425 ml. This was incubated for 15 minutes at 30° C. with shaking, then 3 μCi ^14 C-acetate was added and continued to incubate for 1 hour. Cells were harvested by centrifugation and extracted with 2×0.5 ml methanol; centrifuged, decanted supernate and repeated the extraction with […] methanol-benzene (1:1). Centrifuged, decanted; combined supernates, dried and resuspended in 100 μl chloroform-methanol (1:1). The aliquots were spotted onto silica gel 60 (Merck) plates and developed chromatographically in a solvent containing dichloromethane-acetone (60:1). […]
# T1 sequence (P10613 whole entry): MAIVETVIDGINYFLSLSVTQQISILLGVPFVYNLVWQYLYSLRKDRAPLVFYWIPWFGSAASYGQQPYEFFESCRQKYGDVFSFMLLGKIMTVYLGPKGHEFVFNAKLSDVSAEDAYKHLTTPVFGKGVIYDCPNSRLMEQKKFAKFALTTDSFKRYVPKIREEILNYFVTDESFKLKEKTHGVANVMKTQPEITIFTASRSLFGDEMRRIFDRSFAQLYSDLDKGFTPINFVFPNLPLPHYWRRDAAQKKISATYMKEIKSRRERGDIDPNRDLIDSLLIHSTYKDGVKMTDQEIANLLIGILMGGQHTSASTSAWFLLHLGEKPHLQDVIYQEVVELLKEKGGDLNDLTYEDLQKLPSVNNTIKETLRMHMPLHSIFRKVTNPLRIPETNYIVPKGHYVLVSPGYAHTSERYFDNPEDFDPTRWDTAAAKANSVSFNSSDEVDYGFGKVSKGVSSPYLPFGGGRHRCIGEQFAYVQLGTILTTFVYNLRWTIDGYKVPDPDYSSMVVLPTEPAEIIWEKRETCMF
SMILES,"MIC (Aspergillus fumigatus [1]; SC2100, Aspergillus fumigatus SC 2100, 10^3 cfu) [µg/mL]","activity against Aspergillus fumigatus (Aspergillus fumigatus [1]; in words, Table 6)",MIC [2] [µg/mL],MIC (Epidermophyton floccosum) [µg/mL],MIC (Trichophyton rubrum) [µg/mL],MIC (Microsporum canis) [µg/mL],LD50 [3] [mg/kg],MIC (Aspergillus fumigatus [4]) [µg/mL],MIC (Enterococcus faecalis) [µg/mL],MIC [5] [µg/mL],MIC (Micrococcus luteus) [µg/mL],"concentration causing accumulation of lanosterol, consistent with inhibition of lanosterol demethylase [6]"
C/C=C/C=C/C=C(\C)[C@H]1OC[C@@H](C)[C@@H](OC)[C@@H]1OC(=O)CN (relative stereo) [Lanomycin],100,inactive,0.4,0.4,1.6,0.4,385,100,> 100,0.8,> 100,–
"CCC/C=C/C=C/C=C(\C)[C@H]1OC[C@@H](C)[C@@H](OC)[C@@H]1OC(=O)CN (relative stereo) [Scopularin, (2α, 3β, 4α, 5α)-Tetrahydro-4-methoxy-5-methyl-2-(1-methyl-1,3,5-nonatrienyl)-2H-pyran-3-ol, aminoacetate ester]",–,–,–,–,–,–,–,–,–,–,–,6.7×10^-7
